Results taken from PMC13485499, “Neoliensinine promotes lysosomal cell death in T cell malignancies via a novel STING-TUBA1B pathway” (Genes & Diseases, 2025).

Target: T1, Stimulator of interferon genes (STING) (Homo sapiens, UniProt Q86WV6)
T1 construct: gene STING1
Experiment: DARTS in Jurkat and Hut102 cell lysates ([…]); weaker than NeoL
Assay type: cell-based

T1 sequence (Q86WV6 whole entry): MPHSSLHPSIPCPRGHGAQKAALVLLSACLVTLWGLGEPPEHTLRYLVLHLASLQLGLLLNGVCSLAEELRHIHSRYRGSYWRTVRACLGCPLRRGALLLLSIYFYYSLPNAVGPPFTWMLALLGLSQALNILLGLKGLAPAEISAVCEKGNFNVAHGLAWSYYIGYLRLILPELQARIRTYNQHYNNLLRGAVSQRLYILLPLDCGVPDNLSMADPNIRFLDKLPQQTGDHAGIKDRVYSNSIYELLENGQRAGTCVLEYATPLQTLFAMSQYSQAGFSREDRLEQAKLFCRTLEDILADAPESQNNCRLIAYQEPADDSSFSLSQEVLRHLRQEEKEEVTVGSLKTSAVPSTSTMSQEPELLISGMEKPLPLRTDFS

Question: `COc1ccc(C[C@@H]2c3cc(Oc4cc(C[C@@H]5c6cc(O)c(OC)cc6CCN5C)ccc4O)c(OC)cc3CCN2C)cc1` [IsoL, isoliensinine] was tested. Which “DARTS in Jurkat and Hut102 cell lysates (80 μmol/L); weaker than NeoL” value did it give?
Answer: incubation with NeoL and IsoL led to increased STING in the Jurkat and Hut102 cell lysates
